According to the NIST ThermoML archive (doi:10.1021/je500886a):

Assay: mn = molality of the nth substance listed, in mol/kg
Settings: 101 kPa, Liquid

O=C[C@H](O)[C@@H](O)[C@@H](O)[C@H](O)CO [(+)-galactose] + O
Settings	mass density [kg/m3]	viscosity [mPa·s]
288.15 K, m1 = 0.05001	–	1.166
288.15 K, m1 = 0.05096	1002.7	–
288.15 K, m1 = 0.06903	1003.95	–
288.15 K, m1 = 0.07068	–	1.178
288.15 K, m1 = 0.09042	1005.42	–
288.15 K, m1 = 0.09059	–	1.189
288.15 K, m1 = 0.1099	–	1.199
288.15 K, m1 = 0.1289	–	1.208
288.15 K, m1 = 0.1513	–	1.22
288.15 K, m1 = 0.1552	1009.81	–
298.15 K, m1 = 0.05001	–	0.91
298.15 K, m1 = 0.05096	1000.58	–
298.15 K, m1 = 0.06903	1001.82	–
298.15 K, m1 = 0.07068	–	0.919
298.15 K, m1 = 0.09042	1003.27	–
298.15 K, m1 = 0.09059	–	0.927
298.15 K, m1 = 0.1099	–	0.935
298.15 K, m1 = 0.1102	1004.61	–
298.15 K, m1 = 0.1289	–	0.941
298.15 K, m1 = 0.1322	1006.08	–
298.15 K, m1 = 0.1513	–	0.951
308.15 K, m1 = 0.05001	–	0.734
308.15 K, m1 = 0.05096	997.56	–
308.15 K, m1 = 0.06903	998.79	–
308.15 K, m1 = 0.07068	–	0.741
308.15 K, m1 = 0.09042	1000.22	–
308.15 K, m1 = 0.09059	–	0.747
308.15 K, m1 = 0.1099	–	0.753
308.15 K, m1 = 0.1102	1001.54	–
308.15 K, m1 = 0.1289	–	0.758
308.15 K, m1 = 0.1322	1003	–
308.15 K, m1 = 0.1513	–	0.766
308.15 K, m1 = 0.1552	1004.51	–
318.15 K, m1 = 0.05001	–	0.607
318.15 K, m1 = 0.05096	993.7	–
318.15 K, m1 = 0.06903	994.91	–
318.15 K, m1 = 0.07068	–	0.612
318.15 K, m1 = 0.09042	996.33	–
318.15 K, m1 = 0.09059	–	0.617
318.15 K, m1 = 0.1099	–	0.621
318.15 K, m1 = 0.1102	997.64	–
318.15 K, m1 = 0.1289	–	0.625
318.15 K, m1 = 0.1322	999.07	–
318.15 K, m1 = 0.1513	–	0.63
318.15 K, m1 = 0.1552	1000.57	–

O=C[C@@H](O)[C@H](O)[C@H](O)CO [D-(-)-arabinose] + O
Settings	mass density, 288.15 K [kg/m3]	mass density, 298.15 K [kg/m3]	mass density, 308.15 K [kg/m3]	mass density, 318.15 K [kg/m3]	viscosity, 288.15 K [mPa·s]	viscosity, 298.15 K [mPa·s]	viscosity, 308.15 K [mPa·s]	viscosity, 318.15 K [mPa·s]
m1 = 0.05173	1002.09	999.97	996.94	993.08	–	–	–	–
m1 = 0.05178	–	–	–	–	1.157	0.905	0.73	0.604
m1 = 0.0695	–	–	–	–	1.164	0.909	0.734	0.608
m1 = 0.07102	1003.18	1001.05	998	994.13	–	–	–	–
m1 = 0.08979	–	–	–	–	1.17	0.915	0.738	0.611
m1 = 0.09055	1004.28	1002.13	999.06	995.18	–	–	–	–
m1 = 0.1077	–	–	–	–	1.177	0.92	0.741	0.614
m1 = 0.1093	1005.32	1003.17	1000.07	996.18	–	–	–	–
m1 = 0.1244	1006.17	1004	1000.88	996.98	–	–	–	–
m1 = 0.1267	–	–	–	–	1.182	0.925	0.745	0.616
m1 = 0.1476	1007.45	1005.26	1002.12	998.21	–	–	–	–
m1 = 0.151	–	–	–	–	1.191	0.932	0.75	0.621

OC[C@@H](O)C(O)[C@H](O)CO [D-arabitol] + O
Settings	mass density, 288.15 K [kg/m3]	mass density, 298.15 K [kg/m3]	mass density, 308.15 K [kg/m3]	mass density, 318.15 K [kg/m3]	viscosity, 288.15 K [mPa·s]	viscosity, 298.15 K [mPa·s]	viscosity, 308.15 K [mPa·s]	viscosity, 318.15 K [mPa·s]
m1 = 0.05025	–	–	–	–	1.162	0.906	0.73	0.604
m1 = 0.0542	1001.87	999.73	996.7	992.83	–	–	–	–
m1 = 0.06886	–	–	–	–	1.172	0.913	0.735	0.608
m1 = 0.07304	1002.82	1000.65	997.61	993.72	–	–	–	–
m1 = 0.08867	1003.59	1001.41	998.35	994.45	–	–	–	–
m1 = 0.09155	–	–	–	–	1.183	0.92	0.74	0.611
m1 = 0.1053	1004.4	1002.21	999.14	995.22	–	–	–	–
m1 = 0.1061	–	–	–	–	1.189	0.925	0.744	0.613
m1 = 0.1258	–	–	–	–	1.198	0.931	0.748	0.617
m1 = 0.1323	1005.72	1003.5	1000.41	996.46	–	–	–	–
m1 = 0.1507	–	–	–	–	1.209	0.94	0.754	0.621
m1 = 0.1512	1006.64	1004.39	1001.3	997.33	–	–	–	–

O=C[C@H](O)[C@@H](O)[C@H](O)[C@H](O)CO [D-glucose] + O
Settings	mass density [kg/m3]	viscosity [mPa·s]
288.15 K, m1 = 0.0513	–	1.167
288.15 K, m1 = 0.05146	1002.66	–
288.15 K, m1 = 0.06904	–	1.176
288.15 K, m1 = 0.07233	1004.08	–
288.15 K, m1 = 0.09026	–	1.188
288.15 K, m1 = 0.09244	1005.44	–
288.15 K, m1 = 0.1114	–	1.2
288.15 K, m1 = 0.1294	–	1.212
288.15 K, m1 = 0.149	–	1.219
298.15 K, m1 = 0.0513	–	0.911
298.15 K, m1 = 0.05146	1000.54	–
298.15 K, m1 = 0.06904	–	0.918
298.15 K, m1 = 0.07233	1001.94	–
298.15 K, m1 = 0.09026	–	0.926
298.15 K, m1 = 0.09244	1003.27	–
298.15 K, m1 = 0.1096	1004.41	–
298.15 K, m1 = 0.1114	–	0.935
298.15 K, m1 = 0.1241	1005.36	–
298.15 K, m1 = 0.1294	–	0.942
298.15 K, m1 = 0.149	–	0.951
308.15 K, m1 = 0.0513	–	0.735
308.15 K, m1 = 0.06904	–	0.741
308.15 K, m1 = 0.07233	998.9	–
308.15 K, m1 = 0.09026	–	0.747
308.15 K, m1 = 0.09244	1000.22	–
308.15 K, m1 = 0.1096	1001.34	–
308.15 K, m1 = 0.1114	–	0.755
308.15 K, m1 = 0.1241	1002.28	–
308.15 K, m1 = 0.1294	–	0.759
308.15 K, m1 = 0.1456	1003.66	–
308.15 K, m1 = 0.149	–	0.764
318.15 K, m1 = 0.0513	–	0.609
318.15 K, m1 = 0.05146	993.66	–
318.15 K, m1 = 0.06904	–	0.613
318.15 K, m1 = 0.07233	995.03	–
318.15 K, m1 = 0.09026	–	0.618
318.15 K, m1 = 0.09244	996.33	–
318.15 K, m1 = 0.1096	997.44	–
318.15 K, m1 = 0.1114	–	0.623
318.15 K, m1 = 0.1241	998.37	–
318.15 K, m1 = 0.1294	–	0.627
318.15 K, m1 = 0.1456	999.74	–
318.15 K, m1 = 0.149	–	0.632

OC[C@@H](O)[C@@H](O)[C@H](O)[C@H](O)CO [D-mannitol] + O
Settings	mass density, 288.15 K [kg/m3]	mass density, 298.15 K [kg/m3]	mass density, 308.15 K [kg/m3]	mass density, 318.15 K [kg/m3]	viscosity, 288.15 K [mPa·s]	viscosity, 298.15 K [mPa·s]	viscosity, 308.15 K [mPa·s]	viscosity, 318.15 K [mPa·s]
m1 = 0.04909	1002.3	1000.12	997.07	993.22	–	–	–	–
m1 = 0.05269	–	–	–	–	1.176	0.918	0.74	0.611
m1 = 0.06889	1003.56	1001.34	998.27	994.41	–	–	–	–
m1 = 0.07011	–	–	–	–	1.189	0.927	0.747	0.617
m1 = 0.09002	1004.91	1002.62	999.54	995.65	–	–	–	–
m1 = 0.09107	–	–	–	–	1.203	0.936	0.754	0.621
m1 = 0.1097	–	–	–	–	1.217	0.945	0.761	0.627
m1 = 0.1134	1006.38	1004.04	1000.93	997.03	–	–	–	–
m1 = 0.1266	1007.19	1004.82	1001.71	997.8	–	–	–	–
m1 = 0.1293	–	–	–	–	1.23	0.955	0.765	0.633
m1 = 0.1469	1008.45	1006.03	1002.9	998.97	–	–	–	–
m1 = 0.15	–	–	–	–	1.246	0.964	0.774	0.639
